In US20190160016A1, “Anti-Parasitic Compositions and Methods” (University of Canberra, priority 2016, published 2019):

Key:
Sarcoptes scabiei nits = experiment: ovicidal activity against scabies eggs (hatching rate)
Method: To determine the ovicidal activity of Manuka oil and its fraction, dilutions to 2.5% and 5% were made in olive oil. […] Six independent experiments were conducted on separate days.

[1] = tested on: P. humanus capitis adults and nymphs; experiment: filter paper diffusion bioassay, pediculicidal activity; details: mean individual louse survival time, in vitro pediculicidal treatment
Excerpt: Adults, nymphs, and nits of P. humanus capitis were collected from a population of children between the ages of 3 and 12, with the approval of their guardians, by raking a metal louse comb through sections of the scalp. Adult and nymph lice as well as nits (eggs) were obtained and pooled by carefully removing them from the metal teeth of the comb into clean plastic boxes. The children had not been treated with any pediculicide solution for at least the preceding month, using only the louse comb.
For testing the pediculicidal activity, a filter paper diffusion bioassay was made with adults and nymphs of the insect collected from heads no more than 4 hours before carrying out the assay. After careful selection under a dissecting microscope, 10 lice in a ratio of 8:2 adult:nymph III were placed on a filter paper disk (Whatman No 1; 9-cm diameter) on the lid of a Petri dish. Next, 0.5 ml of either (a) each test solution; (b) distilled water with Tween-20 (control); and (c) distilled water, Tween-20, and preserving agents (excipient control), were spread over the lice and filter paper for each group. The commercial lotions (containing tea tree oil and permethrin as chief active components) (0.5 ml) were simultaneously run as a positive controls. Three to nine replicates were conducted for each treatment. […] The number of dead lice were recorded for each dish.

Structure (SMILES) | Percentage inhibition, Day 4 (Sarcoptes scabiei nits; Day 4) [%] | Percentage inhibition, Day 8 (Sarcoptes scabiei nits; Day 8) [%] | ovicidal activity (in words) (Sarcoptes scabiei nits; nymph emergence, Table 2) | Mean survival time [1] [min]
CC[C@H](C)[C@H]1O[C@]2(CC[C@@H]1C)C[C@@H]1C[C@@H](C/C=C(\C)[C@@H](O[C@H]3C[C@H](OC)[C@@H](O[C@H]4C[C@H](OC)[C@@H](O)[C@H](C)O4)[C@H](C)O3)[C@@H](C)/C=C/C=C3\CO[C@@H]4[C@H](O)C(C)=C[C@@H](C(=O)O1)[C@]34O)O2 [Ivermectin (100 μ/μL), ivermectin] | 12.4 ± 5.0 | 9.8 ± 4.8 | poor ovicidal activity | –
CC1(C)C(C=C(Cl)Cl)C1C(=O)OCc1cccc(Oc2ccccc2)c1 (stereo not shown) [Permethrin, permethrin] | – | – | – | 56.4
